Key:
human O-GlcNAcase = biological target: T1, human O-GlcNAcase (Homo sapiens, UniProt O60502); assay: Fluorescence-based assay for KI values for inhibition of O-GlcNAcase activity; assay type: biochemical; details: purified human O-GlcNAcase, 4-methylumbelliferyl GlcNAc substrate, pH 7.0, Cheng-Prusoff; read-out: Fluorescence-based hOGA Ki
T1 sequence (O60502 1-916): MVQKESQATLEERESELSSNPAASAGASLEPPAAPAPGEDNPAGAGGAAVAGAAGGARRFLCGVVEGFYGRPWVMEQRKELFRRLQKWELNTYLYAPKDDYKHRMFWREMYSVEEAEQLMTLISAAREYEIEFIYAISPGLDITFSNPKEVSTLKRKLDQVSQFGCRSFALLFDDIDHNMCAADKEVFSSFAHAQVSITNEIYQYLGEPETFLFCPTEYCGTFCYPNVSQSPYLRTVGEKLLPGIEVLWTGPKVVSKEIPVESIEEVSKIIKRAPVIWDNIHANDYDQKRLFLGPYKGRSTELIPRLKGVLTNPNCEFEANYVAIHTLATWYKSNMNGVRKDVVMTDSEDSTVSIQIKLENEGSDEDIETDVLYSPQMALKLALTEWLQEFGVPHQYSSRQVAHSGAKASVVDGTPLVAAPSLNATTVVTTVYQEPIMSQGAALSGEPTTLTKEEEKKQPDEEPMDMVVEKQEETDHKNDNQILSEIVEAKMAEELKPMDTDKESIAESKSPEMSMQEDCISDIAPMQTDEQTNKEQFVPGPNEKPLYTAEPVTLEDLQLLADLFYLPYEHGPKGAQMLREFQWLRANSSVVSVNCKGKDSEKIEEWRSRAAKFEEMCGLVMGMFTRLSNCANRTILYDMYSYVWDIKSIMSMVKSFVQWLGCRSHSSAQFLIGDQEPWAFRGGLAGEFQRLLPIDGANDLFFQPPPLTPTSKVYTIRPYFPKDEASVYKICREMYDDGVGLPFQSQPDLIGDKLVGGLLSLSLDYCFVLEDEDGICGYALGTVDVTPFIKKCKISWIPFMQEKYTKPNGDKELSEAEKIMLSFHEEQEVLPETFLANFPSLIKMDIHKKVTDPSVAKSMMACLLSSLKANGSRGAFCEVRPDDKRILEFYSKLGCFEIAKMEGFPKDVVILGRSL
Description: Assay for Determination of KI Values for Inhibition of O-GlcNAcase Activity
Experimental Procedure for Kinetic Analyses:
Enzymatic reactions were carried out in a reaction containing 50 mM NaH2PO4, 100 mM NaCl and 0.1% BSA (pH 7.0) using 2 mM 4-Methylumbelliferyl N-acetyl-β-D-glucosaminide dihydrate (Sigma M2133) dissolved in ddH2O, as a substrate. The amount of purified human O-GlcNAcase enzyme used in the reaction was 0.7 nM. Test compound of varying concentrations was added to the enzyme prior to initiation of the reaction. The reaction was performed at room temperature in a 96-well plate and was initiated with the addition of substrate. The production of fluorescent product was measured every 60 sec for 45 min with a Tecan Infinite M200 plate-reader with excitation at 355 nm and emission detected at […], with 4-Methylumbelliferone (Sigma M1381) used to produce a standard curve. The slope of product production was determined for each concentration of compound tested and plotted, using standard curve fitting algorithms for sigmoidal dose response curves. The values for a four parameter logistic curve fit of the data were determined.
KI values were determined using the Cheng-Prusoff equation; the Km of O-GlcNAcase for substrate was 0.2 mM.

[1] = Apparent permeability (Papp), bi-directional transport; assay type: in vitro ADME; details: pig, LLC-PK1, t=3 h, average of A to B and B to A, read-out: Papp LLC-PK1 cells
Description: Assay for Determination of Apparent Permeability (Papp)
Bi-directional transport is evaluated in LLC-PK1 cells in order to determine apparent permeability (Papp). LLC-PK1 cells can form a tight monolayer and therefore can be used to assess vectorial transport of compounds from basolateral to apical (B→A) and from apical to basolateral (A→B).
To determine Papp, LLC-PK1 cells are cultured in 96-well transwell culture plates (Millipore). Solutions containing the test compounds (1 μM) are prepared in Hank's Balanced Salt Solution with 10 mM HEPES. Substrate solution (150 μL) is added to either the apical (A) or the basolateral (B) compartment of the culture plate, and buffer (150 μL) is added to the compartment opposite to that containing the compound. At t=3 h, 50 μL samples are removed from both sides of monolayers dosed with test compound and placed in 96 well plates, scintillant (200 μL) or internal standard (100 μL labetolol 1 μM) is added to the samples and concentration is determined by liquid scintillation counting in a MicroBeta Wallac Trilux scintillation counter (Perkin Elmer Life Sciences, Boston, Mass.) or by LCMS/MS (Applied Biosystems SCIEX API 5000 triple quadruple mass spectrometer). [^3H]Verapamil (1 μM) is used as the positive control. The experiment is performed in triplicate.
The apparent permeability, Papp, is calculated by the following formula for samples taken at t=3 h:
[formula] Where: Volume of Receptor Chamber is 0.15 mL; Area of membrane is 0.11 cm^2; the Initial Concentration is the sum of the concentration measured in the donor plus concentration measured in receiver compartments at t=3 h; A in Concentration is concentration in the receiver compartment at 3 h; and A in Time is the incubation time (3×60×60=10800 s). Papp is expressed as 10^−6 cm/s. The Papp (LLC-PK1 cells) are the average of the Papp for transport from A to B and Papp for transport from B to A at t=3 h: […]

Ki (human O-GlcNAcase) [nM]	Papp at 3 h, 1 μM [1] [×10⁻⁶ cm/s]	SMILES
369	–	CC(=O)NC[C@@H]1[C@@H](O)[C@H](O)[C@@H](CO)N1CCCc1ccccc1 [Example 1, N-(((2R,3R,4R,5R)-3,4-dihydroxy-5-(hydroxymethyl)-1-(3-phenylpropyl)pyrrolidin-2-yl)methyl)acetamide]
106	2.6	COc1ccc(CCCN2[C@H](CO)[C@@H](O)[C@H](O)[C@H]2CNC(C)=O)cc1 [Example 2, N-(((2R,3R,4R,5R)-3,4-dihydroxy-5-(hydroxymethyl)-1-(3-(4-methoxyphenyl)propyl)pyrrolidin-2-yl)methyl)acetamide]
79	4.4	CC(=O)NC[C@@H]1[C@@H](O)[C@H](O)[C@@H](CO)N1CCc1ccc(-c2ccccc2)cc1 [Example 4, N-(((2R,3R,4R,5R)-1-(2-([1,1′-biphenyl]-4-yl)ethyl)-3,4-dihydroxy-5-(hydroxymethyl)pyrrolidin-2-yl)methyl)acetamide]
172	< 1.6	CC(=O)NC[C@@H]1[C@@H](O)[C@H](O)[C@@H](CO)N1CCCCc1ccccc1 [Example 5, N-(((2R,3R,4R,5R)-3,4-dihydroxy-5-(hydroxymethyl)-1-(4-phenylbutyl)pyrrolidin-2-yl)methyl)acetamide]
41	–	CC(=O)NC[C@@H]1[C@@H](O)[C@H](O)[C@@H](CO)N1CCC(c1ccccc1)c1ccccc1 [Example 6, N-(((2R,3R,4R,5R)-1-(3,3-diphenylpropyl)-3,4-dihydroxy-5-(hydroxymethyl)pyrrolidin-2-yl)methyl)acetamide]
2690	–	CC(=O)NC[C@@H]1[C@@H](O)[C@H](O)[C@@H](CO)N1Cc1cccnc1 [Example 7, N-(((2R,3R,4R,5R)-3,4-dihydroxy-5-(hydroxymethyl)-1-(pyridin-3-ylmethyl)pyrrolidin-2-yl)methyl)acetamide]
3020	–	CC(=O)NC[C@@H]1[C@@H](O)[C@H](O)[C@@H](CO)N1Cc1ccccn1 [Example 8, N-(((2R,3R,4R,5R)-3,4-dihydroxy-5-(hydroxymethyl)-1-(pyridin-2-ylmethyl)pyrrolidin-2-yl)methyl)acetamide]
4560	–	CC(=O)NC[C@@H]1[C@@H](O)[C@H](O)[C@@H](CO)N1Cc1ccc(-c2ccccc2)cc1 [Example 9, N-(((2R,3R,4R,5R)-1-([1,1′-biphenyl]-4-ylmethyl)-3,4-dihydroxy-5-(hydroxymethyl)pyrrolidin-2-yl)methyl)acetamide]
55	–	CNC(=O)C[C@@H]1[C@@H](O)[C@H](O)[C@@H](CO)N1CCCc1ccccc1 [Example 10, 2-((2R,3R,4R,5R)-3,4-dihydroxy-5-(hydroxymethyl)-1-(3-phenylpropyl)pyrrolidin-2-yl)-N-methylacetamide]
132	–	CCNC(=O)C[C@@H]1[C@@H](O)[C@H](O)[C@@H](CO)N1CCCc1ccc(OC)cc1 [Example 11, 2-((2R,3R,4R,5R)-3,4-dihydroxy-5-(hydroxymethyl)-1-(3-(4-methoxyphenyl)propyl)pyrrolidin-2-yl)-N-ethylacetamide]
60	–	CCNC(=O)C[C@@H]1[C@@H](O)[C@H](O)[C@@H](CO)N1CCC(c1ccccc1)c1ccccc1 [Example 12, 2-((2R,3R,4R,5R)-1-(3,3-diphenylpropyl)-3,4-dihydroxy-5-(hydroxymethyl)pyrrolidin-2-yl)-N-ethylacetamide]
8.3	–	CNC(=O)C[C@@H]1[C@H](O)[C@H](O)[C@@H](CO)N1CCCc1ccccc1 [Example 13, 2-((2R,3S,4R,5R)-3,4-dihydroxy-5-(hydroxymethyl)-1-(3-phenylpropyl)pyrrolidin-2-yl)-N-methylacetamide]
108	–	CC(=O)NC[C@H]1N[C@H](CO)[C@@H](O)[C@@H]1O [reference compound]
2020	–	CCCN1C(CNC(C)=O)[C@@H](O)[C@H](O)[C@H]1CO (stereo partly drawn) [reference compound]
1030	–	CCCCN1C(CNC(C)=O)[C@@H](O)[C@H](O)[C@H]1CO (stereo partly drawn) [reference compound]
619	< 1.6	CCCCCCN1C(CNC(C)=O)[C@@H](O)[C@H](O)[C@H]1CO (stereo partly drawn) [reference compound]
343	–	CC(=O)NCC1[C@@H](O)[C@H](O)[C@@H](CO)N1CCc1ccccc1 (stereo partly drawn) [reference compound]
